Values belong to the molecule of their own block, whether it stands above or below them.
Experiment: Biodistribution of radiotracers in normal mice
Assay type: in vivo, mouse
Conditions: normal male mice
Description: Normal CD-1 male mice were injected via the tail vein with 35 μCi of [^68Ga] radiotracers (0.2 nmole of ligand). […] All organs were removed and blood was also collected. Each organ was weighed, and the tissue radioactivity was measured with an automated gamma counter (Wizard, Perkin Elmer). The % ID/g was calculated by comparison with samples of a standard dilution of the initial dose. All measurements were corrected for decay.

Biodistribution: Blood (2 min): 8.55 ± 0.07 % dose/g
Biodistribution: Bone (2 min): 2.30 ± 0.07 % dose/g
Biodistribution: Brain (2 min): 0.28 ± 0.04 % dose/g
Biodistribution: Heart (2 min): 3.48 ± 0.31 % dose/g
Biodistribution: Kidney (2 min): 47.2 ± 2.68 % dose/g
Biodistribution: Liver (2 min): 2.91 ± 0.15 % dose/g
Biodistribution: Lung (2 min): 5.42 ± 0.23 % dose/g
Biodistribution: Muscle (2 min): 2.16 ± 0.34 % dose/g
Biodistribution: Pancreas (2 min): 2.20 ± 0.04 % dose/g
Biodistribution: Skin (2 min): 3.00 ± 0.40 % dose/g
Biodistribution: Spleen (2 min): 3.58 ± 0.48 % dose/g
Biodistribution: Blood (60 min): 0.58 ± 0.07 % dose/g
Biodistribution: Bone (60 min): 1.24 ± 0.19 % dose/g
Biodistribution: Brain (60 min): 0.03 ± 0.01 % dose/g
Biodistribution: Heart (60 min): 0.43 ± 0.14 % dose/g
Biodistribution: Kidney (60 min): 83.5 ± 14.7 % dose/g
Biodistribution: Liver (60 min): 0.79 ± 0.15 % dose/g
Biodistribution: Lung (60 min): 0.90 ± 0.16 % dose/g
Biodistribution: Muscle (60 min): 0.60 ± 0.13 % dose/g
Biodistribution: Pancreas (60 min): 1.13 ± 0.17 % dose/g
Biodistribution: Skin (60 min): 1.07 ± 0.16 % dose/g
Biodistribution: Spleen (60 min): 1.63 ± 0.20 % dose/g
Compound: O=C(O)CC[C@H](NC(=O)N[C@@H](CCCCNC(=O)CCCCCNC(=O)CCc1ccc2c(c1)C[N+]13CC[N+]45CC(=O)[O][68Ga-3]14([O]C(=O)C3)([O]2)[O]c1ccc(CCC(=O)NCC(=O)O)cc1C5)C(=O)O)C(=O)O (stereo partly drawn) [[^68Ga]1c]

Biodistribution: Blood (2 min): 7.44 ± 1.40 % dose/g
Biodistribution: Bone (2 min): 2.01 ± 0.24 % dose/g
Biodistribution: Brain (2 min): 0.23 ± 0.04 % dose/g
Biodistribution: Heart (2 min): 3.18 ± 0.48 % dose/g
Biodistribution: Kidney (2 min): 50.3 ± 8.32 % dose/g
Biodistribution: Liver (2 min): 2.36 ± 0.27 % dose/g
Biodistribution: Lung (2 min): 4.96 ± 0.67 % dose/g
Biodistribution: Muscle (2 min): 1.96 ± 0.08 % dose/g
Biodistribution: Pancreas (2 min): 1.83 ± 0.40 % dose/g
Biodistribution: Skin (2 min): 2.30 ± 0.20 % dose/g
Biodistribution: Spleen (2 min): 3.40 ± 0.91 % dose/g
Biodistribution: Blood (60 min): 0.44 ± 0.06 % dose/g
Biodistribution: Bone (60 min): 0.70 ± 0.09 % dose/g
Biodistribution: Brain (60 min): 0.03 ± 0.00 % dose/g
Biodistribution: Heart (60 min): 0.42 ± 0.01 % dose/g
Biodistribution: Kidney (60 min): 141.7 ± 0.82 % dose/g
Biodistribution: Liver (60 min): 0.68 ± 0.11 % dose/g
Biodistribution: Lung (60 min): 1.10 ± 0.13 % dose/g
Biodistribution: Muscle (60 min): 0.50 ± 0.07 % dose/g
Biodistribution: Pancreas (60 min): 1.02 ± 0.18 % dose/g
Biodistribution: Skin (60 min): 0.81 ± 0.11 % dose/g
Biodistribution: Spleen (60 min): 5.11 ± 0.97 % dose/g
Compound: C[C@H](NC(=O)CCc1ccc2c(c1)C[N+]13CC[N+]45CC(=O)[O][68Ga-3]41([O]C(=O)C3)([O]c1ccc(CCC(=O)NCCCCCC(=O)NCCCC[C@H](NC(=O)N[C@@H](CCC(=O)O)C(=O)O)C(=O)O)cc1C5)[O]2)C(=O)O (stereo partly drawn) [[^68Ga]1d]

Biodistribution: Blood (2 min): 7.47 ± 0.33 % dose/g
Biodistribution: Bone (2 min): 2.33 ± 0.05 % dose/g
Biodistribution: Brain (2 min): 0.25 ± 0.07 % dose/g
Biodistribution: Heart (2 min): 3.12 ± 0.17 % dose/g
Biodistribution: Kidney (2 min): 46.6 ± 3.01 % dose/g
Biodistribution: Liver (2 min): 2.00 ± 0.09 % dose/g
Biodistribution: Lung (2 min): 5.08 ± 0.13 % dose/g
Biodistribution: Muscle (2 min): 2.01 ± 0.09 % dose/g
Biodistribution: Pancreas (2 min): 1.80 ± 0.17 % dose/g
Biodistribution: Skin (2 min): 2.46 ± 0.32 % dose/g
Biodistribution: Spleen (2 min): 3.69 ± 0.45 % dose/g
Biodistribution: Blood (60 min): 0.45 ± 0.14 % dose/g
Biodistribution: Bone (60 min): 0.52 ± 0.06 % dose/g
Biodistribution: Brain (60 min): 0.02 ± 0.00 % dose/g
Biodistribution: Heart (60 min): 0.28 ± 0.05 % dose/g
Biodistribution: Kidney (60 min): 113 ± 28.5 % dose/g
Biodistribution: Liver (60 min): 0.35 ± 0.09 % dose/g
Biodistribution: Lung (60 min): 1.14 ± 0.30 % dose/g
Biodistribution: Muscle (60 min): 0.33 ± 0.07 % dose/g
Biodistribution: Pancreas (60 min): 0.74 ± 0.19 % dose/g
Biodistribution: Skin (60 min): 0.67 ± 0.06 % dose/g
Biodistribution: Spleen (60 min): 3.03 ± 0.90 % dose/g
Compound: O=C(O)CC[C@H](NC(=O)N[C@@H](CCCCNC(=O)CCCCCNC(=O)CCc1ccc2c(c1)C[N+]13CC[N+]45CC(=O)[O][68Ga-3]14([O]C(=O)C3)([O]2)[O]c1ccc(CCC(=O)N[C@@H](CC(=O)O)C(=O)O)cc1C5)C(=O)O)C(=O)O (stereo partly drawn) [[^68Ga]1e]

Biodistribution: Blood (2 min): 7.77 ± 1.51 % dose/g
Biodistribution: Bone (2 min): 2.33 ± 0.38 % dose/g
Biodistribution: Brain (2 min): 0.25 ± 0.02 % dose/g
Biodistribution: Heart (2 min): 3.23 ± 0.64 % dose/g
Biodistribution: Kidney (2 min): 45.0 ± 12.57 % dose/g
Biodistribution: Liver (2 min): 2.43 ± 0.60 % dose/g
Biodistribution: Lung (2 min): 5.07 ± 1.01 % dose/g
Biodistribution: Muscle (2 min): 1.81 ± 0.07 % dose/g
Biodistribution: Pancreas (2 min): 1.72 ± 0.41 % dose/g
Biodistribution: Skin (2 min): 2.44 ± 0.16 % dose/g
Biodistribution: Spleen (2 min): 3.80 ± 0.97 % dose/g
Biodistribution: Blood (60 min): 0.97 ± 0.24 % dose/g
Biodistribution: Bone (60 min): 1.08 ± 0.05 % dose/g
Biodistribution: Brain (60 min): 0.04 ± 0.01 % dose/g
Biodistribution: Heart (60 min): 0.52 ± 0.07 % dose/g
Biodistribution: Kidney (60 min): 120 ± 5.65 % dose/g
Biodistribution: Liver (60 min): 0.79 ± 0.13 % dose/g
Biodistribution: Lung (60 min): 1.37 ± 0.15 % dose/g
Biodistribution: Muscle (60 min): 0.60 ± 0.04 % dose/g
Biodistribution: Pancreas (60 min): 1.13 ± 0.17 % dose/g
Biodistribution: Skin (60 min): 0.98 ± 0.10 % dose/g
Biodistribution: Spleen (60 min): 2.98 ± 1.86 % dose/g
Compound: O=C(O)CC[C@H](NC(=O)CCc1ccc2c(c1)C[N+]13CC[N+]45CC(=O)[O][68Ga-3]41([O]C(=O)C3)([O]c1ccc(CCC(=O)NCCCCCC(=O)NCCCC[C@H](NC(=O)N[C@@H](CCC(=O)O)C(=O)O)C(=O)O)cc1C5)[O]2)C(=O)O (stereo partly drawn) [[^68Ga]1f]

Biodistribution: Blood (2 min): 7.62 ± 0.08 % dose/g
Biodistribution: Bone (2 min): 1.51 ± 0.17 % dose/g
Biodistribution: Brain (2 min): 0.29 ± 0.06 % dose/g
Biodistribution: Heart (2 min): 2.82 ± 0.21 % dose/g
Biodistribution: Kidney (2 min): 50.9 ± 5.81 % dose/g
Biodistribution: Liver (2 min): 2.00 ± 0.05 % dose/g
Biodistribution: Lung (2 min): 5.19 ± 0.19 % dose/g
Biodistribution: Muscle (2 min): 1.72 ± 0.18 % dose/g
Biodistribution: Pancreas (2 min): 1.73 ± 0.09 % dose/g
Biodistribution: Skin (2 min): 2.00 ± 0.21 % dose/g
Biodistribution: Spleen (2 min): 5.06 ± 0.78 % dose/g
Biodistribution: Blood (30 min): 0.68 ± 0.09 % dose/g
Biodistribution: Bone (30 min): 0.22 ± 0.11 % dose/g
Biodistribution: Brain (30 min): 0.06 ± 0.03 % dose/g
Biodistribution: Heart (30 min): 0.49 ± 0.15 % dose/g
Biodistribution: Kidney (30 min): 110 ± 13.4 % dose/g
Biodistribution: Liver (30 min): 0.47 ± 0.06 % dose/g
Biodistribution: Lung (30 min): 2.13 ± 0.39 % dose/g
Biodistribution: Muscle (30 min): 0.48 ± 0.04 % dose/g
Biodistribution: Pancreas (30 min): 0.73 ± 0.19 % dose/g
Biodistribution: Skin (30 min): 1.13 ± 0.25 % dose/g
Biodistribution: Spleen (30 min): 5.28 ± 2.18 % dose/g
Biodistribution: Blood (60 min): 0.41 ± 0.02 % dose/g
Biodistribution: Bone (60 min): 0.28 ± 0.03 % dose/g
Biodistribution: Brain (60 min): 0.03 ± 0.01 % dose/g
Biodistribution: Heart (60 min): 0.27 ± 0.03 % dose/g
Biodistribution: Kidney (60 min): 116 ± 23.2 % dose/g
Biodistribution: Liver (60 min): 0.43 ± 0.05 % dose/g
Biodistribution: Lung (60 min): 1.33 ± 0.06 % dose/g
Biodistribution: Muscle (60 min): 0.30 ± 0.08 % dose/g
Biodistribution: Pancreas (60 min): 0.48 ± 0.05 % dose/g
Biodistribution: Skin (60 min): 0.92 ± 0.11 % dose/g
Biodistribution: Spleen (60 min): 4.77 ± 2.37 % dose/g
Biodistribution: Blood (120 min): 0.25 ± 0.04 % dose/g
Biodistribution: Bone (120 min): 0.28 ± 0.03 % dose/g
Biodistribution: Brain (120 min): 0.02 ± 0.00 % dose/g
Biodistribution: Heart (120 min): 0.16 ± 0.01 % dose/g
Biodistribution: Kidney (120 min): 95.0 ± 11.2 % dose/g
Biodistribution: Liver (120 min): 0.30 ± 0.01 % dose/g
Biodistribution: Lung (120 min): 0.85 ± 0.16 % dose/g
Biodistribution: Muscle (120 min): 0.23 ± 0.04 % dose/g
Biodistribution: Pancreas (120 min): 0.39 ± 0.04 % dose/g
Biodistribution: Skin (120 min): 0.66 ± 0.10 % dose/g
Biodistribution: Spleen (120 min): 2.48 ± 0.91 % dose/g
Compound: O=C(O)CC[C@H](NC(=O)N[C@@H](CCCCNC(=O)CCCCCNC(=O)CCc1ccc2c(c1)C[N+]13CC[N+]45CC(=O)[O][68Ga-3]14([O]C(=O)C3)([O]2)[O]c1ccc(CCC(=O)NCCNC(=O)CN2CCN(CC(=O)O)CCN(CC(=O)O)CCN(CC(=O)O)CC2)cc1C5)C(=O)O)C(=O)O (stereo partly drawn) [[^68Ga]1g]

Reference: patent US10688200B2, “Urea-based prostate specific membrane antigen (PSMA) inhibitors for imaging and therapy” (Five Eleven Pharma Inc., priority 2015, dated 2020)
